Results taken from patent US20240043448A1, “Small Molecule Inhibitors of KRAS G12C Mutant” (Merck Sharp & Dohme LLC, priority 2019, published 2024).
Where two headings read alike, the source gives them in different places.

What was measured:
[1] = system: phospho-ERK; experiment: Cellular phospho-ERK assay; assay type: cell-based; settings: NCI-H358 cells, 2 hour incubation, ratio of p-Erk vs total Erk, read-out: IC50 (nM) pERK (Cell)
Experimental: NCI-H358 cells (ATCC® CRL-5807™) were cultured in T150 flask in growth medium (RPMI medium 1640-GlutaMAX™-I (ThermoFisher Scientific 61870) containing 10% fetal bovine serum (ThermoFisher Scientific 10091148)). The cells were harvested in growth medium after TrypLE (ThermoFisher scientific 12604021) digestion and were seeded in a 384-well collagen coated cell culture plate (Corning 356702) at a density of 15,000 cells/well, and incubated at 37° C., 5% CO2 overnight. The compound dose-response titrations were prepared and appropriate amounts of compounds were dispensed in a 384-well intermediate plate using an Echo 550 liquid handler. RPMI medium 1640-GlutaMAX™-I were added to the intermediate plate and transferred to 384-well cell culture plate, which was incubated at 37° C., 5% CO2 for 2 hours. After removal of medium from the plate, cells were lysed in lysis buffer from Alpha SureFire® Ultra™ Multiplex p-Erk and total Erk assay kit (PerkinElmer MPSU-PTERK) containing Halt™ Protease and Phosphotase inhibitor cocktail (ThermoFisher Scientific 78446) at room temperature with constant shaking at 300 rpm for 30 minutes. The cell lysates were then transferred to OptiPlate-384 plate (PerkinElmer 6005620) and the phosphorylation of Erk and total Erk levels were detected by Alpha SureFire Ultra Multiplex p-Erk kit (PerkinElmer MPSU-PTERK) following the manufacturer's protocol. Assay plates were read on an EnVision Multimode Plate Reader (PerkinElmer), and the ratio of p-Erk vs total Erk in each well was used as the final readout. Dose response curves were analyzed using a 4-parameter logistic model to calculate IC50 values using spotfire software.

[2] = target: Biotinylated KRAS G12C protein (Homo sapiens (Human), UniProt P01116, C118S/C51S/C80L/G12C); experiment: SOS-catalyzed nucleotide exchange assay (TR-FRET); assay type: biochemical; settings: in vitro apparent potency; preincubation time of 60 minutes prior to addition of SOS
Experimental: The SOS-catalyzed nucleotide exchange assay utilizes a preformed complex of recombinant biotinylated KRAS protein containing G12C/C51S/C80L/C118S mutations (183 amino acids; biotin on K10; leader sequence which is an AviTag; referred to as SEQ ID NO: 1 or “Biotinylated KRAS G12C protein” hereafter), Bodipy-GDP, and Terbium-streptavidin. Compounds are added to this complex and then after incubation for 60 minutes, the mixture is treated with recombinant SOS protein and unlabeled GTP. Small molecule inhibitors stabilize the Bodipy-GDP complex whereas the untreated protein rapidly exchanges Bodipy-GDP for unlabeled GTP resulting in reduced TR-FRET signal.
Biotinylated KRAS G12C protein (SEQ ID NO: 1) is diluted to 2 μM in an EDTA buffer (20 mM HEPES, 150 mM sodium chloride, 10 mM EDTA, and 0.01% Tween) and incubated at room temperature for one hour. This mixture is then further diluted to 90 nM in an assay buffer (20 mM HEPES, 150 mM sodium chloride, 10 mM magnesium chloride, and 0.005% Tween) containing 15 nM of Terbium-Streptavidin (Invitrogen, catalog #PV3577) and 900 nM of Bodipy-GDP and incubated at room temperature for six hours. This solution is referred to as Biotinylated KRAS G12C mixture.
Each test compound (10 mM stock in DMSO) is diluted in DMSO to make a 10-point, 3-fold dilution series in a 384-well low dead volume microplate (Labcyte, catalog #LP-0200). Once titrations are made, 10 nL of the diluted compounds is acoustically dispensed into a 384-well plate (Corning, catalog #3820) using an Echo 550 (Labcyte).
Each well of the plate receives 3 μL Biotinylated KRAS G12C mixture that had been incubating for six hours and 3 μL of assay buffer using a BioRAPTR (Beckman Coulter) and is incubated at room temperature for 60 minutes. Each well then receives 3 μL of 240 nM recombinant human SOS protein and 9 mM GTP (Sigma, G8877) in assay buffer and is incubated at room temperature for 60 minutes.
The time-resolved fluorescence resonance energy transfer signal of the plate is measured on an Envision (PerkinElmer) plate reader: Excitation filter=340 nm; emission1=495 nm; emission2=520 nm; dichroic mirror=D400/D505; delay time=100 μs. The signal of each well is determined as the ratio of the emission at 520 nm to that at 495 nm. Percent effect of each well is determined after normalization to control wells containing DMSO (no effect) or a saturating concentration of inhibitor (max effect). The apparent effect as a function of compound concentration is fit to a four parameter logistic equation.

Row | Compound | IC50 ([1]; Homo sapiens, NCI-H358, 2 h) | IC50 [2] | IC50 [1]
1 | C=CC(=O)N1CCN(c2nc(=O)n3c4nc(c(F)cc24)-c2c(F)cccc2OCCCc2ccnc(C(C)C)c2-3)[C@@H](CC)C1 [Example 98, 2-[(25)-2-ethyl-4-(prop-2-enoyl)piperazin-1-yl]-17,20-difluoro-6-(propan-2-yl)-11,12-dihydro-4H,10H-1,18-(ethanediylidene)pyrido[4,3-e]pyrimido[1,6-g][1,7,9] benzoxadiazacyclododecin-4-one] | 49 nM | 11 nM | 
2 | C=CC(=O)N1CCN(c2nc(=O)n3c4nc(c(F)cc24)-c2c(F)cccc2CCCOc2ccnc(C(C)C)c2-3)[C@@H](C)C1 (single isomer, unassigned) [Example 20a] |  | 12 nM | 30 nM
3 | C=CC(=O)N1CCN(c2nc(=O)n3c4nc(c(F)cc24)-c2c(F)cccc2OCCCc2ccnc(C(C)C)c2-3)[C@@H](C)C1 (single isomer, unassigned) [Example 10b] |  | 2590 nM | 4380 nM
4 | C=CC(=O)N1C[C@H](C)N(c2nc(=O)n3c4nc(c(Cl)cc24)-c2c(F)cccc2OCC(F)(F)COc2ccnc(C(C)C)c2-3)C[C@H]1C [Example 59, 21-chloro-2-[(2S,5R)-2,5-dimethyl-4-(prop-2-enoyl)piperazin-1-yl]-12,12,18-trifluoro-6-(propan-2-yl)-12,13-dihydro-4H,11H-1,19-(ethanediylidene)pyrido[4,3-f]pyrimido[1,6-h][1,5,8,10] benzodioxadiazacyclo-tridecin-4-one] | 6.1 nM | 0.91 nM | 
5 | C=CC(=O)N1CC(C)N(c2nc(=O)n3c4nc(c(Cl)cc24)-c2c(F)cccc2COCCc2ccnc(C(C)C)c2-3)CC1C [Example 109, 20-chloro-2-[(2S,5R)-2,5-dimethyl-4-(prop-2-enoyl)piperazin-1-yl]-17-fluoro-6-(propan-2-yl)-10,11-dihydro-1,18-ethenopyrido[3,4-e]pyrimido[6,1-c][9,2,4]benzoxadiazacyclododecin-4(13H)-one] |  | 2.3 nM | 21 nM
6 | [(2S)-4-[17,20-difluoro-4- oxo-6-(propan-2-yl)-11,12- dihydro-4H-1,18- (ethanediylidene)pyrido[4,3- e]pyrimido[1,6-g][1,4,7,9] benzodioxadiazacyclo- dodecin-2-yl]-1-(prop-2- enoyl)piperazin-2- yl]acetonitrile [Example 14a] |  | 8.1 nM | 1240 nM
7 | C=CC(=O)N1C[C@H](C)N(c2nc(=O)n3c4nc(c(F)cc24)-c2c(F)cccc2OCCCCc2ccnc(C(C)C)c2-3)C[C@H]1C [Example 8, 2-[(2S,5R)-2,5-dimethyl-4-(prop-2-enoyl)piperazin-1-yl]-18,21-difluoro-6-(propan-2-yl)-10,11,12,13-tetrahydro-4H-1,19-ethenopyrido[4,3-f]-pyrimido[1,6-h][1,8,10]ben-zoxadiazacyclotridecin-4-one] | 2.2 nM | 3.5 nM | 
8 | C=CC(=O)N1CC(C)N(c2nc(=O)n3c4nc(c(Cl)cc24)-c2c(F)ccc(F)c2OCCOc2ccnc(C(C)C)c2-3)CC1C [Example 50, (5aSa,17aRa)-20-chloro-2-[(2S,5R)-2,5-dimethyl-4-(prop-2-enoyl)piperazin-1-yl]-14,17-difluoro-6-(propan-2-yl)-11,12-dihydro-4H-1,18-(ethanediylidene)pyrido[4,3-e]pyrimido[1,6-g][1,4,7,9]benzodioxadiazacyclododecin-4-one] |  | 1.1 nM | 4.4 nM

Further lines, results first:

Row | IC50 ([1]; Homo sapiens, NCI-H358, 2 h) | IC50 [2] | IC50 [1] | Compound
9 | 149 nM | 35 nM |  | C=CC(=O)N1CCN(c2nc(=O)n3c4nc(c(F)cc24)-c2c(F)cccc2OCCCc2ccnc(C(C)C)c2-3)C(C)(C)C1 [Example 102, 2-[2,2-dimethyl-4-(prop-2-enoyl)piperazin-1-yl]-17,20-difluoro-6-(propan-2-yl)-11,12-dihydro-4H,10H-1,18-ethenopyrido[4,3-e]pyrimido[1,6-g][1,7,9] benzoxadiazacyclododecin-4-one]
10 |  | 9.8 nM | 79 nM | C=CC(=O)N1CCN(c2nc(=O)n3c4nc(c(F)cc24)-c2c(F)cccc2OCCCCc2cnc(C(C)C)c-3c2)[C@@H](C)C1 (single isomer, unassigned) [Example 16a]
11 |  | 2.4 nM | 16 nM | C=CC(=O)N1CC(C)N(c2nc(=O)n3c4nc(c(F)cc24)-c2c(ccc(F)c2F)OCC(F)(F)CCc2ccnc(C(C)C)c2-3)CC1C [Example 54, (5aRa,18aRa)-2-[(2S,5R)-2,5-dimethyl-4-(prop-2-enoyl)piperazin-1-yl]-12,12,17,18,21-pentafluoro-6-(propan-2-yl)-10,11,12,13-tetrahydro-4H-1,19-(ethanediylidene)pyrido[4,3-f]pyrimido[1,6-h][1,8,10]benzoxadiazacyclotridecin-4-one]
12 | 3600 nM | 1910 nM |  | C=CC(=O)N1CC2CCC1CN2c1nc(=O)n2c3nc(c(F)cc13)-c1c(F)cccc1OCCCc1ccnc(C(C)C)c1-2 (centres unmarked) [Example 105, 17,20-difluoro-6-(propan-2-yl)-2-[5-(prop-2-enoyl)-2,5-diazabicyclo[2.2.2]octan-2-yl]-11,12-dihydro-4H,10H-1,18-ethenopyrido[4,3-e]pyrimido[1,6-g][1,7,9]benzoxadiazacyclododecin-4-one]
13 | 508 nM | 25 nM |  | C=CC(=O)N1CCN(c2nc(=O)n3c4nc(c(F)cc24)-c2c(F)cccc2OCCCc2ccnc(C(C)C)c2-3)C(Cc2ccccc2)C1 (centres unmarked) [Example 100, 2-[2-benzyl-4-(prop-2-enoyl)piperazin-1-yl]-17,20-difluoro-6-(propan-2-yl)-11,12-dihydro-4H,10H-1,18-ethenopyrido[4,3-e]pyrimido[1,6-g][1,7,9]benzoxadiazacyclododecin-4-one]
14 | 8.9 nM | 11 nM |  | C=CC(=O)N1C[C@H](C)N(c2nc(=O)n3c4nc(c(F)cc24)-c2c(Cl)cccc2OCCOc2ccnc(C(C)C)c2-3)C[C@H]1C [Example 83, 17-chloro-2-[(2S,5R)-2,5-dimethyl-4-(prop-2-enoyl)piperazin-1-yl]-20-fluoro-6-(propan-2-yl)-11,12-dihydro-4H-1,18-(ethanediylidene)pyrido[4,3-e]pyrimido[1,6-g][1,4,7,9]benzodioxadiazacyclododecin-4-one]
15 |  | 17 nM | 44 nM | C=CC(=O)N1CCN(c2nc(=O)n3c4nc(c(F)cc24)-c2cccc4cnn(c24)CCCc2ccnc(C(C)C)c2-3)[C@@H](C)C1 (single isomer, unassigned) [Example 117]
16 |  | 195 nM | > 30000 nM | C=C(C#N)C(=O)N1C[C@H](C)N(c2nc(=O)n3c4nc(c(Cl)cc24)-c2c(F)ccc(F)c2OCCCc2ccnc(C(C)C)c2-3)C[C@H]1C [Example 121, 2-{(2R,5S)-4-[20-chloro-14,17-difluoro-4-oxo-6-(propan-2-yl)-11,12-dihydro-4H,10H-1,18-ethenopyrido[4,3-e]pyrimido[1,6-g][1,7,9]benzoxadiazacyclododecin-2-yl]-2,5-dimethylpiperazine-1-carbonyl}prop-2-enenitrile]
